Data: patent US20240158446A1, “CYCLIC COMPOUND HAVING SELECTIVE INHIBITORY ACTION ON KRAS OVER HRAS AND NRAS” (CHUGAI SEIYAKU KABUSHIKI KAISHA, priority 2021, published 2024)
Read-outs that look alike come from different tables or passages of the source. *1 amine or outer side, *2 acyl side, *3 side chain or, on linkers, in order; H or OH if unused. Where a SMILES comes first, the peptide text is derived from it. Bridges are numbered along the chain shown (N, C = ends). [ ]: non-standard residue; d: D form. The star is where a group is joined. hPhe(3,5-F2-4-CF3) = N[C@@H](CCc1cc(F)c(C(F)(F)F)c(F)c1)C(=O)O; hPhe(3-Cl-4-CF3) = N[C@@H](CCc1ccc(C(F)(F)F)c(Cl)c1)C(=O)O; X37 = O=C([C@H](Cc1ccc(C(F)(F)F)cc1)N(CC1CCC1)[*:1])[*:2]; NPrPhe(4-CF3) = CCCN[C@@H](Cc1ccc(C(F)(F)F)cc1)C(=O)O; X19 = CCCN([C@@H](CC1CCC(F)(F)CC1)C(=O)[*:2])[*:1]; NMeGly(cPent) = CN[C@H](C(=O)O)C1CCCC1; NMeD = CN[C@@H](CC(=O)O)C(=O)O; NMeL = CN[C@@H](CC(C)C)C(=O)O; αMeS = C[C@](N)(CO)C(=O)O; Morpholide = C1CN(*)CCO1; NMeA = CN[C@@H](C)C(=O)O; Ac5c = NC1(C(=O)O)CCCC1; Aze = O=C(O)[C@@H]1CCN1; NEtG = CCNCC(=O)O; Sar = CNCC(=O)O; Allyl = C=CC*

What was measured:
[1] = target: GDP-bound KRAS wild-type protein (Homo sapiens, UniProt P01116); test: Binding to KRAS by surface plasmon resonance (SPR), Single Cycle Kinetics; settings: GDP-bound KRAS wild-type protein, read-out: KRAS KD
Sequence of GDP-bound KRAS wild-type protein (P01116 whole entry): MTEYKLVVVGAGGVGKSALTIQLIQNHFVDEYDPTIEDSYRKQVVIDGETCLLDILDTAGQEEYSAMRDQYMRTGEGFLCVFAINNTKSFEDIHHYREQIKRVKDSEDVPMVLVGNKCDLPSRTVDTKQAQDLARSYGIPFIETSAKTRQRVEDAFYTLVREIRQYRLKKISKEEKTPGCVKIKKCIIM

[2] = target: GDP-bound NRAS wild-type protein (Homo sapiens, UniProt P01111); test: Binding to NRAS by surface plasmon resonance (SPR), Single Cycle Kinetics; settings: for NRAS/KRAS (ratio of KD value with respect to NRAS to KD value with respect to KRAS) / NRAS/KRAS (ratio of KD value for NRAS to KD value for KRAS): SPR, GDP-bound NRAS wild-type protein vs GDP-bound KRAS wild-type protein
Sequence of GDP-bound NRAS wild-type protein (P01111 whole entry): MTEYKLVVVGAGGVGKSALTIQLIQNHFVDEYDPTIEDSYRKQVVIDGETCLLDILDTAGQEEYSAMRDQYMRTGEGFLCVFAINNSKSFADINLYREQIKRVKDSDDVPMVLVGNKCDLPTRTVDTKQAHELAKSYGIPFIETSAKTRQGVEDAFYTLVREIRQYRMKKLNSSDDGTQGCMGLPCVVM

[3] = target: GDP-bound HRAS wild-type protein (Homo sapiens, UniProt P01112); test: Binding to HRAS by surface plasmon resonance (SPR), Single Cycle Kinetics; settings: for HRAS/KRAS (ratio of KD value with respect to HRAS to KD value with respect to KRAS) / HRAS/KRAS (ratio of KD value for HRAS to KD value for KRAS): SPR, GDP-bound HRAS wild-type protein vs GDP-bound KRAS wild-type protein
Sequence of GDP-bound HRAS wild-type protein (P01112 whole entry): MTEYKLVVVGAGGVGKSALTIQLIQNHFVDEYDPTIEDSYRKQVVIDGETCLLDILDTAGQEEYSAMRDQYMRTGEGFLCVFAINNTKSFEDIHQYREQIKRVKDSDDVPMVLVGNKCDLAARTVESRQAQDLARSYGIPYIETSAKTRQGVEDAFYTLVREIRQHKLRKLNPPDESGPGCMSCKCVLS

[4] = SPR Single Cycle Kinetics, 1:1 binding model

Compound	Kd [1, 4] [pM]	NRAS/KRAS (ratio of KD value with respect to NRAS to KD value with respect to KRAS) [2]	HRAS/KRAS (ratio of KD value with respect to HRAS to KD value with respect to KRAS) [3]	NRAS/KRAS (ratio of KD value for NRAS to KD value for KRAS) [2]	HRAS/KRAS (ratio of KD value for HRAS to KD value for KRAS) [3]	other results
C=CCOC[C@]1(C)NC(=O)[C@@H]2CCCN2C(=O)[C@H](CCc2cc(F)c(C(F)(F)F)c(F)c2)NC(=O)CN(C)C(=O)[C@H](Cc2ccc(C(F)(F)F)cc2)N(CCC)C(=O)[C@@H]2CCN2C(=O)CN(C)C(=O)[C@H]([C@@H](C)CC)NC(=O)[C@H](CC(C)C)N(C)C(=O)C[C@@H](C(=O)N2CCOCC2)N(C)C(=O)[C@H](C2CCCC2)N(C)C1=O [PP0799] ([NMeL]I[Sar][Aze][NPrPhe(4-CF3)][Sar][hPhe(3,5-F2-4-CF3)]P[αMeS](Allyl)[NMeGly(cPent)][NMeD]-Morpholide; lactam N-11)	1500	C (A compound having a KD ratio of 0.1 or more and less than 3 is denoted as C)	B (a compound having 3 or more and less than 10 is denoted as B)			
CCCN1C(=O)[C@@H]2CCN2C(=O)[C@H](C)N(C)C(=O)[C@H]([C@@H](C)CC)NC(=O)[C@H](CC(C)C)N(C)C(=O)C[C@@H](C(=O)N2CCOCC2)N(C)C(=O)[C@H](C2CCCC2)N(C)C(=O)C2(CCCC2)NC(=O)[C@@H]2CCCN2C(=O)[C@H](CCc2ccc(C(F)(F)F)c(Cl)c2)NC(=O)CN(C)C(=O)[C@@H]1CC1CCC(F)(F)CC1 [PP0527] ([NMeL]I[NMeA][Aze][X19][Sar][hPhe(3-Cl-4-CF3)]P[Ac5c][NMeGly(cPent)][NMeD]-Morpholide; lactam N-11)	210	C (A compound having a KD ratio of 0.1 or more and less than 3 is denoted as C)	C (A compound having a KD ratio of 0.1 or more and less than 3 is denoted as C)			
CCO[C@@H]1C[C@H]2C(=O)NC3(CC(C)(C)C3)C(=O)N(C)[C@@H](C(CC)CC)C(=O)N(C)[C@H](C(=O)N(C)C)CC(=O)N(C)[C@@H](CC(C)C)C(=O)N[C@@H]([C@@H](C)CC)C(=O)N(C)CC(=O)N(C)[C@H]3C/C=C\CCN(C3=O)[C@@H](Cc3ccc(C(F)(F)F)cc3)C(=O)N(C)CC(=O)N[C@@H](CCc3cc(F)c(C(F)(F)F)c(F)c3)C(=O)N2C1 [PP2127]				AA (a compound having 20 or more is denoted as AA)	A (a compound having 10 or more and less than 20 is denoted as A)	Kd ([1]; SPR, Single Cycle Kinetics): 180 pM
CCO[C@@H]1C[C@H]2C(=O)NC3(CCC3)C(=O)N(C)[C@@H](C3CCCC3)C(=O)N(C)[C@H](C(=O)N3CCOCC3)CC(=O)N(C)[C@@H](CCOC)C(=O)N[C@@H]([C@@H](C)CC)C(=O)N(C)CC(=O)N(C)[C@H]3CCCCCN(C3=O)[C@@H](Cc3ccc(C(F)(F)F)cc3)C(=O)N(C)CC(=O)N[C@@H](CCc3cc(F)c(C(F)(F)F)c(F)c3)C(=O)N2C1 [PP0690]	460	B (a compound having 3 or more and less than 10 is denoted as B)	B (a compound having 3 or more and less than 10 is denoted as B)			
CCO[C@@H]1C[C@H]2C(=O)NC3(CCC3)C(=O)N(C)[C@@H](C3CCCC3)C(=O)N(C)[C@H](C(=O)N(C)C)CC(=O)N(C)[C@@H](C)C(=O)N[C@@H]([C@@H](C)CC)C(=O)N(C)CC(=O)N(C)[C@H]3CCCCCN(C3=O)[C@@H](Cc3ccc(C(F)(F)F)cc3)C(=O)N(C)CC(=O)N[C@@H](CCc3cc(F)c(C(F)(F)F)c(F)c3)C(=O)N2C1 [PP0476]	200	B (a compound having 3 or more and less than 10 is denoted as B)	B (a compound having 3 or more and less than 10 is denoted as B)			
CC[C@H](C)[C@@H]1NC(=O)[C@H](CC(C)C)N(C)C(=O)C[C@@H](C(=O)N(C)C)N(C)C(=O)[C@H](C2CCCC2)N(C)C(=O)C2(CCCC2)NC(=O)[C@@H]2CCCN2C(=O)[C@H](CCc2cc(F)c(C(F)(F)F)c(F)c2)NC(=O)CN(C)C(=O)[C@H](Cc2ccc(C(F)(F)F)cc2)N2CCCCC[C@@H](C2=O)N(C)C(=O)CN(C)C1=O [PP0507]	940	B (a compound having 3 or more and less than 10 is denoted as B)	B (a compound having 3 or more and less than 10 is denoted as B)			
CC[C@H](C)[C@@H]1NC(=O)[C@H](CC(C)C)N(C)C(=O)C[C@@H](C(=O)N2CCOCC2)N(C)C(=O)[C@H](C2CCCC2)N(C)C(=O)C2(CCC2)NC(=O)[C@@H]2[C@@H](OC)CCN2C(=O)[C@H](CCc2cc(F)c(C(F)(F)F)c(F)c2)NC(=O)CN(C)C(=O)[C@H](Cc2ccc(C(F)(F)F)cc2)N2CCCC[C@@H](C2=O)N(C)C(=O)CN(C)C1=O [PP1075]				B (a compound having 3 or more and less than 10 is denoted as B)	B (a compound having 3 or more and less than 10 is denoted as B)	Kd ([1]; SPR, Single Cycle Kinetics): 66 pM
CCO[C@@H]1C[C@H]2C(=O)NC3(CC(C)(C)C3)C(=O)N(C)[C@@H](CC3CCC3)C(=O)N(C)[C@H](C(=O)N(C)C)CC(=O)N(C)[C@@H](COC)C(=O)N[C@@H]([C@@H](C)CC)C(=O)N(C3CC3)CC(=O)N(C)[C@H]3C/C=C\CCN(C3=O)[C@@H](Cc3ccc(C(F)(F)F)cc3)C(=O)N(C)CC(=O)N[C@@H](CCc3ccc(C(F)(F)F)c(OC)c3)C(=O)N2C1 [PP2771]	2200					NRAS/KRAS (ratio of KD value with respect to GDP-bound NRAS wild-type protein to KD value with respect to KRAS) ([2]; SPR KD ratio NRAS/KRAS, class symbols): AA (a compound having 20 or more is denoted as AA); HRAS/KRAS (ratio of KD value with respect to GDP-bound HRAS wild-type protein to KD value with respect to KRAS) ([3]; SPR KD ratio HRAS/KRAS, class symbols): A (a compound having 10 or more and less than 20 is denoted as A)
CCO[C@@H]1C[C@H]2C(=O)NC3(CC(C)(C)C3)C(=O)N(C)[C@@H](C3CCCC3)C(=O)N(C)[C@H](C(=O)N(C)C)CC(=O)N(C)[C@@H](CC3CC3)C(=O)N[C@@H]([C@@H](C)CC)C(=O)N(C)CC(=O)N(C)[C@H]3C/C=C\CCN(C3=O)[C@@H](Cc3ccc(C(F)(F)F)cc3)C(=O)N(C)CC(=O)N[C@@H](CCc3cc(F)c(C(F)(F)F)c(F)c3)C(=O)N2C1 [PP1568]						Kd ([1]; SPR, Single Cycle Kinetics, 1:1 binding model): 31 pM; NRAS/KRAS (ratio of KD value for NRAS to KD value for KRAS) ([2]; KD ratio class): A (a compound having 10 or more and less than 20 is denoted as A); HRAS/KRAS (ratio of KD value for HRAS to KD value for KRAS) ([3]; KD ratio class): A (a compound having 10 or more and less than 20 is denoted as A)
CC[C@H](C)[C@@H]1NC(=O)[C@H](CC(C)C)N(C)C(=O)C[C@@H](C(=O)N2CCOCC2)N(C)C(=O)[C@H](C2CCCC2)N(C)C(=O)C2(CCCC2)NC(=O)[C@@H]2CCCN2C(=O)[C@H](CCc2ccc(C(F)(F)F)c(Cl)c2)NC(=O)CN(C)C(=O)[C@H](Cc2ccc(C(F)(F)F)cc2)N(CC2CCC2)C(=O)[C@@H]2CCN2C(=O)[C@H](C)N(C)C1=O [PP0109] ([NMeL]I[NMeA][Aze][X37][Sar][hPhe(3-Cl-4-CF3)]P[Ac5c][NMeGly(cPent)][NMeD]-Morpholide; lactam N-11)	1300			C (A compound having a KD ratio of 0.1 or more and less than 3 is denoted as C)	B (a compound having 3 or more and less than 10 is denoted as B)	
CC[C@H](C)[C@@H]1NC(=O)[C@H](CC(C)C)N(C)C(=O)C[C@@H](C(=O)N2CCOCC2)N(C)C(=O)[C@H](C2CCCC2)N(C)C(=O)C2(CCC2)NC(=O)[C@@H]2[C@@H](OCC3CCCC3)CCN2C(=O)[C@H](CCc2cc(F)c(C(F)(F)F)c(F)c2)NC(=O)CN(C)C(=O)[C@H](Cc2ccc(C(F)(F)F)cc2)N2CCCC[C@@H](C2=O)N(C)C(=O)CN(C)C1=O [PP1073]				B (a compound having 3 or more and less than 10 is denoted as B)	B (a compound having 3 or more and less than 10 is denoted as B)	Kd ([1]; SPR, Single Cycle Kinetics): 360 pM
CCCN1C(=O)CN(C)C(=O)CN(CC)C(=O)[C@H]([C@@H](C)CC)NC(=O)[C@H](CC(C)C)N(C)C(=O)C[C@@H](C(=O)N2CCOCC2)N(C)C(=O)[C@H](C2CCCC2)N(C)C(=O)C2(CCCC2)NC(=O)[C@@H]2CCCN2C(=O)[C@H](CCc2ccc(C(F)(F)F)c(Cl)c2)NC(=O)CN(C)C(=O)[C@@H]1Cc1ccc(C(F)(F)F)cc1 [PP0145] ([NMeL]I[NEtG][Sar][NPrPhe(4-CF3)][Sar][hPhe(3-Cl-4-CF3)]P[Ac5c][NMeGly(cPent)][NMeD]-Morpholide; lactam N-11)	500			B (a compound having 3 or more and less than 10 is denoted as B)	B (a compound having 3 or more and less than 10 is denoted as B)	
CC[C@H](C)[C@@H]1NC(=O)[C@H](CC(F)(F)F)N(C)C(=O)C[C@@H](C(=O)N2CCOCC2)N(C)C(=O)[C@H](C2CCCC2)N(C)C(=O)C2(CCCC2)NC(=O)[C@@H]2CCCN2C(=O)[C@H](CCc2cc(F)c(C(F)(F)F)c(F)c2)NC(=O)CN(C)C(=O)[C@H](Cc2ccc(C(F)(F)F)cc2)N2CCCC[C@@H](C2=O)N(C)C(=O)CN(C)C1=O [PP0594]	73	C (A compound having a KD ratio of 0.1 or more and less than 3 is denoted as C)	B (a compound having 3 or more and less than 10 is denoted as B)			
